From ChEMBL document CHEMBL3792378, “Design, synthesis and cytotoxicity of pyrano[4,3-b]indol-1(5H)-ones: A hybrid pharmacophore approach via gold catalyzed cyclization” (Bioorg Med Chem Lett, 2016) come the findings set out here.

As a reminder, the IC50 is the midpoint of a concentration-inhibition curve.

The experiment deals with HeLa. Briefly: Cytotoxicity against human HeLa cells incubated for 48 hrs by MTT assay. Type of experiment: functional, cell-based. A general note: Tetrazolium dyes change colour on reduction, which living cells bring about.
`O=c1oc(-c2ccccc2)cc2c1c1ccccc1n2Cc1ccccc1` came in with an IC50 of 690 nM.
Molecule `CC(C)(O)c1cc2c(c(=O)o1)c1ccccc1n2Cc1ccccc1` had an IC50 of 2020 nM.
As for `Cn1c2ccccc2c2c(=O)oc(-c3ccccc3)cc21`, the figure is 1240 nM.
For `CCn1c2ccccc2c2c(=O)oc(-c3ccccc3)cc21`, the IC50 turned out to be 1410 nM.
Consider `CCCCn1c2ccccc2c2c(=O)oc(-c3ccccc3)cc21`, for which the IC50 stood at 1110 nM.
On to `CCCCc1cc2c(c(=O)o1)c1ccccc1n2C`, for which the half-maximal inhibitory concentration (IC50) was 1920 nM.
`O=c1oc(-c2ccccc2)cc2[nH]c3ccccc3c12` showed an IC50 of 2550 nM.
Take `CCCCCc1cc2c(c(=O)o1)c1ccccc1n2Cc1ccccc1`: inhibition was half-maximal at 1630 nM (IC50).
`CCCCc1cc2c(c(=O)o1)c1ccccc1n2Cc1ccccc1` registered an IC50 of 1750 nM.
In turn, `CCCCc1cc2c(c(=O)o1)c1ccccc1n2CC` yielded an IC50 of 1890 nM.
Consider `O=c1oc(CCCO)cc2c1c1ccccc1n2Cc1ccccc1`, for which 2250 nM corresponded to half-maximal inhibition (IC50).
